# Laboratory results from US12324814B2, “Manganese composition for enhancing immunity” (PEKING UNIVERSITY, priority 2019, dated 2025).
# Columns and labels:
# influenza virus = tested on: influenza virus; parameters: species or system mice; conditions: mouse, in vivo
# melanoma B16-F10 = assay: Subcutaneous B16-F10 melanoma, manganese colloid with cyclophosphamide; type: in vivo, mice; conditions: 14 days after inoculation; colloid 5 mg/kg i.m. every two days; CTX 140 mg/kg i.p. day 6, 9, 12
# [1] = tested on: mouse peritoneal macrophages; type: cell-based
# [2] = tested on: inflammatory factors IL-1β and IL-18; type: cell-based, mouse
# IL-1β = assay: Induction of inflammatory factor IL-1β by manganese products; type: cell-based; conditions: FIG. 2B
# Protocol: Each of the products was tested.
# [3] = 20 μg manganese i.m. in 100 μl saline
# Protocol: The mice were randomly divided into 2 groups according to body weight, namely: intramuscular injection of MnCl2 solution group (20 μg MnCl2 dissolved in 100 μl saline), and intramuscular injection of manganese colloid group (20 μg manganese colloid suspended in 100 μl saline). 20 μg here refers to the mass of the element manganese. At different times after the injection, 0.1 g of the muscle at the injection site was taken, digested with a microwave digestion apparatus, and then the content of the element manganese was determined by ICP-MS (Thermo X SERIES II).
# B16-OVA tumor = assay: B16-OVA tail vein tumor metastasis model after immunization; type: in vivo, mice; conditions: 21 days after tumor injection
# Protocol: Mn2OHPO4 colloid and aluminum adjuvant were mixed respectively with antigen OVA to immunize mice. Immunizations were performed 3 times with once every 7 days to activate the immune response in the body. B16-OVA tumor was injected into the tail vein to establish a tumor metastasis model. The mice were sacrificed 21 days after the tumor injection, and the lung tissues were taken out.
# B16/OVA melanoma cells = assay: B16/OVA melanoma subcutaneous in situ tumor model after immunization; type: in vivo, mice; conditions: 21 days after tumor inoculation; immunized three times with OVA ± adjuvant
# Description: The mice were randomly divided into 4 groups according to body weight: blank control group (con), OVA control group, OVA and manganese colloid group (OVA+Mn), and OVA and aluminum adjuvant group (OVA+Al). After immunizing the mice three times according to the experimental scheme (once every 7 days), the B16/OVA melanoma cells were subcutaneously inoculated to establish an in situ tumor model. […] 21 days after tumor inoculation, the average tumor size of mice in the control group was 1906 mm^3, the average tumor size of mice in the OVA group was 925.5 mm^3, the average tumor size of mice immunized with manganese colloid was 222.9 mm^3, and the average tumor size of mice in the aluminum adjuvant group was 1946 mm^3, as shown in FIG. 14B.
molecule,measurement,setting,value
CTB,inflammation in the lungs,influenza virus,a small amount of inflammation in lung
same,weight of the mice after influenza infection,influenza virus,recovered slightly after a slight weight loss
"O=P1(N(CCCl)CCCl)NCCCO1 (stereo not shown) [CTX, cyclophosphamide monohydrate]",tumor size,melanoma B16-F10,393.9 mm^3
[Cl][Mn][Cl] [MnCl2],"expression of type I interferon (ISG54, Viperin, total type I interferon in supernatant)",[1],can activate the expression of type I interferon
same,"ability to activate inflammatory factors (caspase 1 and IL-1β cleavage, IL-1β and IL-18)",[2],significantly stronger than that of aluminum adjuvant
same,ability to activate inflammatory factors in NLRP3 knockout cells,[2],significantly lowered
same,"ability to activate inflammatory factors, MnCl2 compared with manganese colloid",IL-1β,have the same ability to activate inflammatory factors
same,retention at the injection site (manganese content in muscle),[3],quickly metabolized
"OVA: ovalbumin antigen (InvivoGen, #vac-pova), given without adjuvant (protein, UniProt P01012 2-386, looked up) Ovalbumin: GSIGAASMEFCFDVFKELKVHHANENIFYCPIAIMSALAMVYLGAKDSTRTQINKVVRFDKLPGFGDSIEAQCGTSVNVHSSLRDILNQITKPNDVYSFSLASRLYAEERYPILPEYLQCVKELYRGGLEPINFQTAADQARELINSWVESQTNGIIRNVLQPSSVDSQTAMVLVNAIVFKGLWEKAFKDEDTQAMPFRVTEQESKPVQMMYQIGLFRVASMASEKMKILELPFASGTMSMLVLLPDEVSGLEQLESIINFEKLTEWTSSNVMEERKIKVYLPRMKMEEKYNLTSVLMAMGITDVFSSSANLSGISSAESLKISQAVHAAHAEINEAGREVVGSAEAGVDAASVSEEFRADHPFLFCIKHIATNAVLFFGRCVSP",melanomas on the lungs,B16-OVA tumor,a certain number of melanomas
same,average tumor size,B16/OVA melanoma cells,925.5 mm^3
